Results published in patent US12691145B2, “Plasma-treated hydrogel compositions and uses thereof” (UNIVERSITAT POLITÉCNICA DE CATALUNYA, priority 2020, dated 2026).

Assay: Detection of RONS in plasma-treated polymer solutions (strips, AR/HRP reagent, Griess reagent)
Format: physicochemical
Settings: 200 μL
Source text: In the examples presented here, two kinds of atmospheric plasma jet were used: a commercially available cold atmospheric plasma jet kINPen IND (NEOPLAS Tools, Germany), operating with argon and an atmospheric pressure plasma jet (APPJ) using He as plasma gas in a jet design based on a single electrode. Gas flow was regulated between 1 and 2.5 L/min for kINPen and between 1 and 5 L/min for APPJ by using Ar and He Bronkhorst Mass View flow controllers (BRONKHORST, Netherlands), respectively. All plasma treatments of polymeric solutions for RONS quantification were performed on 200 μL of the polymeric solution in 96-well plates, with a distance between the nozzle and the sample surface between 10 and 20 mm. These plasma treatments were done with ungrounded samples. Both grounded and ungrounded samples can be used to obtain the compositions of the present invention, since the skilled person can set the plasma treatment conditions to obtain the desired RONS concentrations.
Determination of NO2^− concentration in plasma-treated polymer solutions was performed using Griess reagent. The Griess reagent used was obtained by dissolving 1% wt/v of sulphanilamide, 0.1% wt/v of N-(1-naphthyl)ethylenediamine dihydrochloride (NEED) and 5% w/v of phosphoric acid in de-ionized water. 200 μL of Griess reagent were added on 200 μL of sample in 96 well-plates. The plates were incubated for 10 min at room temperature protected from the light. The absorbance was measured at λabs=540 nm using a Synergy HTX Hybrid Multi Mode Microplate Reader (BioTek Instruments, Inc., USA). The [NO2^−] in each sample was determined from the absorbance values by using a calibration curve made from NaNO2 dilutions in the corresponding polymer solutions.
The concentration of hydrogen peroxide was determined by reaction of H2O2 with Amplex Red in presence of HRP enzyme that leads to the creation of resorufin, a fluorescent product. Amplex Red/HRP reagent consists in 100 μM of Amplex Red and 0.25 U/mL HRP in DI water. Since the higher concentration of H2O2 able to be processed properly by this reagent is around 10 μM of H2O2, plasma-treated polymer solutions were diluted 200 times previously to the addition of the reagent. In this case, for hydrogen peroxide detection, 50 μL of the Amplex Red/HRP reagent was added to 200 μL of the 200×-diluted polymer solution sample in a 96-well plate and incubated for 30 min at 37° C. Subsequent fluorescence measurements were performed by means of a Synergy HTX Hybrid Multi Mode Microplate Reader (BioTek Instruments, Inc., USA), with fluorescence filters centred at λex=560/20 nm and λem=590/20 nm as excitation and emission wavelengths, respectively. Concentrations of H2O2 in polymer solution generated by plasma treatment were obtained from the fluorescence values using a calibration curve made from 30% hydrogen peroxide solution in the corresponding polymer solutions.
For certain polymer solutions, interferences may be found between the solution and the reactants, invalidating the measure. In such cases, another method was used to determine the concentration of H2O2, […] in the polymer solutions after plasma treatment: QUANTOFIX® test strips, which were analyzed by means of a reflexion photometer (QUANTOFIX® Relax, of Macherey Nagel). The strips consist of plastic strips to which test paper has been sealed. Nitrite strips are also based in Griess reagent. Peroxide strips also use a redox reaction. The range of detection of the test strips used for H2O2, NO3^− and NO2^− were 1-100 mg/L, 10-500 mg/L and 1-80 mg/L, respectively. The plasma-treated polymer solutions were diluted, if necessary, to be within the measuring range.

With Water the H2O2 (APPJ, treat. time 180 s) was 9.2 mg/L, the “NO2^−” value (APPJ, treat. time 180 s) was 1.7 mg/L and the H2O2 (APPJ, treat. time 300 s) was 16.4 mg/L. For the same substance, the “NO2^−” value (APPJ, treat. time 300 s) was 2.7 mg/L, the H2O2 (kINPen, treat. time 180 s) was 10.3 mg/L and the “NO2^−” value (kINPen, treat. time 180 s) was 2.6 mg/L. The H2O2 (kINPen, treat. time 300 s) was 29.3 mg/L and the “NO2^−” value (kINPen, treat. time 300 s) was 2.7 mg/L.
